Laboratory results: patent publication US12690589B2, “Herbicidal compositions comprising pyroxasulfone” (BASF SE, priority 2024, dated 2026)
Values joined by “and” are separate entries in the source; they are usually repeats but may differ in a detail not shown here. Equal values may be shown once.

Tests used:
Experiment in all cases: Post-emergence application in field trials, herbicidal activity (damage scale 0 to 100%)
Type in all cases: in vivo
[1] = system: Lolium multiflorum (LOLMU)
Protocol: (§1) In the examples below, using the method of S. R. Colby (1967) “Calculating synergistic and antagonistic responses of herbicide combinations”, Weeds 15, p. 22ff., the value E, which is expected if the activity of the individual active compounds is only additive, was calculated:
(§2) [formula] • wherein • X=percent activity using active herbicide A at an application rate a; • Y=percent activity using active herbicide B (e.g. pyroxasulfone) at an application rate b; • E=expected activity (in %) by A+B at application rates a+b.
(§3) For 3-component mixtures the synergistic response was calculated as described in: Ferry, Nancy; Stanley, Bruce H.; and Armel, Gregory (2005). “DESIGN AND ANALYSIS OF BIOLOGICAL ASSAYS OF MIXTURES,” Conference on Applied Statistics in Agriculture. https://doi.org/10.4148/2475-7772.1133. According to this publication, the Colby calculation can be generalized to a third mixing partner, Z, employing the following formula: […]
(§4) If the value found experimentally is higher than the value E calculated according to Colby, a synergistic effect is present.
(§5) On field test sites, natural weed infestation or seeded weeds were treated post-emergence of the weeds.
(§6) In the field trials, the weeds were treated as indicated below.
(§7) In the following experiments, the herbicidal activity for the individual herbicidal compositions (solo and mixture applications) was assessed at the indicated days after treatment (DAT). The assessments for the damage on undesired weeds caused by the composition was carried out using a scale from 0 to 100%, compared to the untreated control plants. Here, 0 means no damage and 100 means complete destruction of the plants.
(§8) Herbicide A-1 (342 g/l) and pyroxasulfone (500 g/l) were, together with addition of 0.25 v/v % MSO (methylated seed oil) as adjuvant, formulated in 200 l/ha water as distribution medium and sprayed with commercial flat fan nozzles.
(§9) Herbicide A-1 (342 g/l), pyroxasulfone (500 g/l) and trifludimoxazin (500 g/l) were, together with addition of 0.25 v/v % MSO (methylated seed oil) as adjuvant, formulated in 200 l/ha water as distribution medium and sprayed with commercial flat fan nozzles.
(§10) Herbicide A-1 (342 g/I), pyroxasulfone (500 g/l) and glyphosate-isopropylammonium (356 g/l) were, together with addition of 0.25 v/v % MSO (methylated seed oil) as adjuvant, formulated in 200 l/ha water as distribution medium and sprayed with commercial flat fan nozzles.
(§11) Herbicide A-1 (342 g/l), pyroxasulfone (500 g/l) and glufosinate-P-ammonium (211 g/l) were, together with addition of 0.25 v/v % MSO (methylated seed oil) as adjuvant, formulated in 200 l/ha water as distribution medium and sprayed with commercial flat fan nozzles.
(§12) Herbicide A-1 (342 g/l), pyroxasulfone (500 g/l) and 2,4-D-choline (456 g/l) were, together with addition of 0.25 v/v % MSO (methylated seed oil) as adjuvant, formulated in 200 l/ha water as distribution medium and sprayed with commercial flat fan nozzles.

[2] = system: Amaranthus retroflexus (AMARE)
Protocol: as §1, §2, §3, §4, §5, §6, §7, §8, §9, §10, §11, §12

[3] = system: Setaria verticillata (SETVE)
Protocol: as §1, §2, §3, §4, §5, §6, §7, §8, §9, §10, §11, §12

Hordeum vulgare (HORVW) = system: Hordeum vulgare (HORVW)
Protocol: as §1, §2, §3, §4, §5, §6, §7, §8, §9, §10, §11, §12

For `CCOC(=O)COc1ccccc1Oc1nc(-n2c(=O)cc(C(F)(F)F)n(C)c2=O)c(F)cc1Cl` [A-1, ethyl 2-[2-[[3-chloro-5-fluoro-6-[3-methyl-2,6-dioxo-4-(trifluoromethyl)pyrimidin-1-yl]-2-pyridyl]oxy]phenoxy]acetate], the “% Herbicidal activity” value ([1]; 28 DAT, stage 22-25, height 20-25 cm, g ai/ha A-1 12.5, B 70, C-12 252) was 40%, the “% Herbicidal activity” value ([1]; 28 DAT, stage 22-25, height 20-25 cm, g ai/ha A-1 18, B 70, C-12 252) was 40% and the “% Herbicidal activity” value ([1]; 28 DAT, stage 22-25, height 20-25 cm, g ai/ha A-1 18, B 90, C-12 252) was 40%. The “% Herbicidal activity” value ([1]; LOLMU, growth stage 22-25, height 20-25 cm, A-1 18 g ai/ha, 7 DAT, Table 4.2) was 60%, the “% Herbicidal activity” value ([1]; LOLMU, growth stage 22-25, height 20-25 cm, A-1 18 g ai/ha, 21 DAT, Table 4.4) was 60% and the “% Herbicidal activity” value ([2]; 7 DAT, stage 31-49, height 10-12 cm, g ai/ha A-1 12.5, B 70, C-4 12.5) was 80%. For the same compound, the “% Herbicidal activity” value ([2]; 21 DAT, stage 31-49, height 10-12 cm, g ai/ha A-1 18, B 70, C-12 252) was 80%, the “% Herbicidal activity” value ([2]; 21 DAT, stage 31-49, height 10-12 cm, g ai/ha A-1 18, B 90, C-12 252) was 80% and the “% Herbicidal activity” value ([2]; 42 DAT, stage 31-49, height 10-12 cm, g ai/ha A-1 12.5, B 70, C-4 12.5) was 80%. The “% Herbicidal activity” value ([2]; 42 DAT, stage 31-49, height 10-12 cm, g ai/ha A-1 18, B 70) was 90%, the “% Herbicidal activity” value ([2]; 42 DAT, stage 31-49, height 10-12 cm, g ai/ha A-1 18, B 70, C-4 12.5) was 85% and the “% Herbicidal activity” value ([2]; 42 DAT, stage 31-49, height 10-12 cm, g ai/ha A-1 18, B 90, C-4 12.5) was 85%. For the same compound, the “% Herbicidal activity” value ([2]; AMARE, growth stage 31-49, height 10-12 cm, A-1 12.5 g ai/ha, 7 DAT, Table 4.1) was 80%, the “% Herbicidal activity” value ([2]; AMARE, growth stage 31-49, height 10-12 cm, A-1 12.5 g ai/ha, 21 DAT, Table 4.3) was 90% and the “% Herbicidal activity” value ([2]; AMARE, growth stage 31-49, height 10-12 cm, A-1 18 g ai/ha, 7 DAT, Table 4.1) was 80% and 93%. The “% Herbicidal activity” value ([2]; AMARE, growth stage 31-49, height 10-12 cm, A-1 18 g ai/ha, 21 DAT, Table 4.3) was 80% and 92%, the “% Herbicidal activity” value ([3]; 7 DAT, stage 21-23, height 8-16 cm, g ai/ha A-1 18, B 70, C-8 840) was 75% and the “% Herbicidal activity” value ([3]; 7 DAT, stage 21-23, height 8-16 cm, g ai/ha A-1 18, B 70, C-12 252) was 70%. The “% Herbicidal activity” value ([3]; 7 DAT, stage 21-23, height 8-16 cm, g ai/ha A-1 18, B 90, C-4 12.5) was 80%, the “% Herbicidal activity” value ([3]; 7 DAT, stage 21-23, height 8-16 cm, g ai/ha A-1 18, B 90, C-8 840) was 75% and the “% Herbicidal activity” value ([3]; 7 DAT, stage 21-23, height 8-16 cm, g ai/ha A-1 18, B 90, C-12 252) was 70%. For the same compound, the “% Herbicidal activity” value ([3]; 21 DAT, stage 21-23, height 8-16 cm, g ai/ha A-1 18, B 90, C-12 252) was 65%, the “% Herbicidal activity” value ([3]; 42 DAT, stage 21-23, height 8-16 cm, g ai/ha A-1 12.5, B 70) was 50% and the “% Herbicidal activity” value ([3]; 42 DAT, stage 21-23, height 8-16 cm, g ai/ha A-1 12.5, B 70, C-12 252) was 50%. For the same compound, the “% Herbicidal activity” value ([3]; 42 DAT, stage 21-23, height 8-16 cm, g ai/ha A-1 18, B 70) was 70%, the “% Herbicidal activity” value ([3]; 42 DAT, stage 21-23, height 8-16 cm, g ai/ha A-1 18, B 90, C-12 252) was 50% and the “% Herbicidal activity” value ([3]; SETVE, growth stage 21-23, height 8-16 cm, A-1 12.5 g ai/ha, 7 DAT, Table 4.1) was 75%. The “% Herbicidal activity” value ([3]; SETVE, growth stage 21-23, height 8-16 cm, A-1 12.5 g ai/ha, 21 DAT, Table 4.3) was 70%, the “% Herbicidal activity” value ([3]; SETVE, growth stage 21-23, height 8-16 cm, A-1 18 g ai/ha, 7 DAT, Table 4.1) was 75% and the “% Herbicidal activity” value ([3]; SETVE, growth stage 21-23, height 8-16 cm, A-1 18 g ai/ha, 21 DAT, Table 4.3) was 75%. The “% Herbicidal activity” value ([3]; Table 8.1, 7 DAT, stage 21-23, height 8-16 cm, g ai/ha A-1 18, B 70, C-12 1066) was 75%, the “% Herbicidal activity” value ([3]; Table 8.2, 21 DAT, stage 21-23, height 8-16 cm, g ai/ha A-1 12.5, B 70, C-12 1066) was 70% and the “% Herbicidal activity” value ([3]; Table 8.4, 42 DAT, stage 21-23, height 8-16 cm, g ai/ha A-1 12.5, B 70, C-12 1066) was 60%. The “% Herbicidal activity” value (Hordeum vulgare (HORVW); 7 DAT, stage 23-29, height 20-25 cm, g ai/ha A-1 12.5, B 70, C-12 252) was 70%, the “% Herbicidal activity” value (Hordeum vulgare (HORVW); 7 DAT, stage 23-29, height 20-25 cm, g ai/ha A-1 18, B 70, C-12 252) was 70% and the “% Herbicidal activity” value (Hordeum vulgare (HORVW); 7 DAT, stage 23-29, height 20-25 cm, g ai/ha A-1 18, B 90, C-12 252) was 70%. The “% Herbicidal activity” value (Hordeum vulgare (HORVW); 21 DAT, stage 23-29, height 20-25 cm, g ai/ha A-1 12.5, B 70, C-12 252) was 70%, the “% Herbicidal activity” value (Hordeum vulgare (HORVW); 21 DAT, stage 23-29, height 20-25 cm, g ai/ha A-1 18, B 70, C-12 252) was 70% and the “% Herbicidal activity” value (Hordeum vulgare (HORVW); 21 DAT, stage 23-29, height 20-25 cm, g ai/ha A-1 18, B 90, C-12 252) was 70%. For the same compound, the “% Herbicidal activity” value (Hordeum vulgare (HORVW); 28 DAT, stage 23-29, height 20-25 cm, g ai/ha A-1 12.5, B 70, C-12 252) was 70%, the “% Herbicidal activity” value (Hordeum vulgare (HORVW); 28 DAT, stage 23-29, height 20-25 cm, g ai/ha A-1 18, B 70, C-12 252) was 70% and the “% Herbicidal activity” value (Hordeum vulgare (HORVW); 28 DAT, stage 23-29, height 20-25 cm, g ai/ha A-1 18, B 90, C-12 252) was 70%. The “% Herbicidal activity” value (Hordeum vulgare (HORVW); HORVW, growth stage 23-29, height 20-25 cm, A-1 12.5 g ai/ha, 7 DAT, Table 4.2) was 70%, the “% Herbicidal activity” value (Hordeum vulgare (HORVW); HORVW, growth stage 23-29, height 20-25 cm, A-1 12.5 g ai/ha, 21 DAT, Table 4.4) was 70% and the “% Herbicidal activity” value (Hordeum vulgare (HORVW); HORVW, growth stage 23-29, height 20-25 cm, A-1 12.5 g ai/ha, 28 DAT, Table 4.5) was 70%. The “% Herbicidal activity” value (Hordeum vulgare (HORVW); HORVW, growth stage 23-29, height 20-25 cm, A-1 18 g ai/ha, 7 DAT, Table 4.2) was 70%, the “% Herbicidal activity” value (Hordeum vulgare (HORVW); HORVW, growth stage 23-29, height 20-25 cm, A-1 18 g ai/ha, 21 DAT, Table 4.4) was 70% and the “% Herbicidal activity” value (Hordeum vulgare (HORVW); HORVW, growth stage 23-29, height 20-25 cm, A-1 18 g ai/ha, 28 DAT, Table 4.5) was 70%.
